The subject of series [1] is acute attacks of vertigo in patients with Menière's disease. As to the kind of experiment: Observational study: high-dosage betahistine monotherapy versus lower-dosage betahistine plus selegiline. Type of series: in vivo, human. As to the method: Betahistine dihydrochloride tablets were obtained from Abbott (Vasomotol 24 mg tablets). Selegiline hydrochloride tablets were obtained from Hexal.
Studies by the Applicant investigated the benefits of a high-dosage betahistine monotherapy compared with those of a lower dosage of betahistine in combination with the MAO B inhibitor (MAO-B) selegiline on the frequency of acute attacks of vertigo in patients with Menière's disease (MD).
More specifically, studies investigated the effect of combination therapy in 13 subjects receiving 5 mg per day selegiline hydrochloride (either as one tablet at night, or half a tablet in the morning and half a tablet at night), in conjunction with varying amounts of betahistine dihydrochloride per day (amounts ranging from n=3 to 36, where n is the number of 24 mg tablets per day). All subjects had previously received treatment with betahistine dihydrochloride monotherapy (in amounts ranging from n=9 to 80, where n is the number of 24 mg tablets per day), and the number of vertigo attacks per month were recorded during a three month period of monotherapy prior to commencement of combination treatment. Following combination treatment, the subjects then recorded the number of vertigo attacks per month during the last two months of combination treatment.
The 13 patients in this observational study fulfilled the current diagnostic criteria of MD [48]. Patients with the diagnosis of other peripheral or central vestibular disorders, such as vestibular migraine, benign paroxysmal positional vertigo, paroxysmal brainstem attacks, or functional dizziness, were not included. Patients suffering from known contraindications or hypersensitivity to betahistine, such as bronchial asthma, pheochromocytoma, or treatment with other antihistaminic drugs, ulcer of the stomach or duodendum, or severe dysfunction of liver or kidney were also not treated with betahistine. Patients with known contraindications (e.g., use of meperidine or other opioids, tricyclic antidepressants or non-selective MAOls, selective serotonin re-uptake inhibitors) or hypersensitivity to selegiline were not treated with this agent.
Based on the results of the BEMED trial (showing that betahistine 48 mg tid is evidently not effective) the study initially started with a dosage of 96 mg tid in all patients. During the three- to six-monthly follow-up examinations the daily dosages were adjusted according to the patient's response (approach: “titration” of attacks of vertigo). Patients had been treated for at least 18 months with high dosages of betahistine-dihydrochloride and had ≤1 attacks for at least three months. An initial dosage of 5 mg/day selegiline hydrochloride was chosen (approved dosage for Parkinson's disease is 5 to 10 mg/d). In parallel the dosage of betahistine was reduced to about a tenth of the initial dosage. The design of the observational study was approved by the local ethics committee. Follow-up examinations were after 1 month and then every 3 months to check the efficacy of the treatment and the side-effects and to adjust the betahistine dosage if necessary. Ideally, the objective was to achieve ≤1 attack per three months.

The subject of series [2] is vertigo episodes related to Menière's disease. The following applies: daily doses 2×24 mg or 3×48 mg; nine months; cited from earlier work.
The conditions of series [3]: cited from earlier work.

Several values for one entry are separate records, joined by “and”; a condition that tells them apart may be missing. Equal values may be shown once.

Consider `CNCCc1ccccn1` [betahistine, 2-[2-(methylamino)ethyl]pyridine], for which, in series [1] (13 patients), the “daily betahistine-dihydrochloride dosage required to achieve a treatment response, mean” value is 895.4 mg/day and the “daily betahistine-dihydrochloride dosage required to achieve a treatment response, mean in tablets” value was 37.3 24-mg tablets per day. Further, the “mean daily dosage of betahistine-dihydrochloride to respond to treatment (≤1 attack per three months), FIG. 1” value in series [1] (13 patients, per day) worked out at 895.4 mg. For the same compound, the tolerability result in series [1] (216 to 1920 mg per day) is “well tolerated”. In series [1] (216 to 1920 mg per day, 13 patients), the “patients with fullness of the stomach” value was 4 patients. The “Dosage of betahistine (monotherapy) required that the patient had a significant effect before the combined treatment” value in series [1] (individual patients 1-13 with Menière's disease, tablets per day) is 80 n of 24-mg tablets and 30 n of 24-mg tablets (3×) and 9 n of 24-mg tablets and 36 n of 24-mg tablets and 60 n of 24-mg tablets (2×) and 24 n of 24-mg tablets and 18 n of 24-mg tablets (2×) and 50 n of 24-mg tablets and 40 n of 24-mg tablets. Further, in series [2], the “effect on time course of vertigo episodes compared with placebo” value is on record as “does not change the time course of vertigo episodes”. Moreover, the plasma concentrations entry in series [3] (betahistine without MAO inhibitor) is reported as “less than 0.5 ng/ml”. Further, the first-pass effect in series [3] (normally almost complete) is 99%.

Values taken from patent US11083718B2, “Betahistine, or a pharmaceutically acceptable salt thereof, and a monoamine oxidase inhibitor, for use in the treatment or prevention of one or more symptoms of vertigo in a subject” (INTRABIO LTD, priority 2017, dated 2021).
